± gives the standard deviation of the averaged measurements.
Compound: CC(=O)N1CCc2c(c(N3CCCc4cc(-c5cnn(C)c5)c(C(F)F)cc43)nn2C2CCC(CN3CCN(c4ccc5c(c4)C(=O)N(C4CCC(=O)NC4=O)C5=O)CC3)CC2)C1 [CBPD-409]
Experiment: AUC of viability dose-response curve (relative to vehicle, 8 doses up to 10 µM) (fraction); higher = less sensitive (more viable); extreme values may be limits of the assay
Protocol: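 PRISM multiplexed pooled barcoded cell line viability screen at the Broad Institute, 887 cancer cell lines treated with CBPD-409 (p300/CBP PROTAC degrader) at 8 concentrations in threefold dilution, top dose 10 µM. The read-out is the area under the dose-response curve of relative viability versus vehicle (n=3). AUC < 0.3 is called strongly sensitive and AUC > 0.8 resistant.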

For HKA1_SKIN, the “AUC of viability dose-response curve” value was 1.
For PATU8902_PANCREAS, the “AUC of viability dose-response curve” value was 0.689.
PANC0403_PANCREAS was tested, and the “AUC of viability dose-response curve” value was 0.725.
With HEYA8_OVARY the “AUC of viability dose-response curve” value was 1.
In the case of SCABER_URINARY_TRACT, the “AUC of viability dose-response curve” value is reported as 0.714.
For NCIH2444_LUNG, the “AUC of viability dose-response curve” value was 1.
For ICC12_BILIARY_TRACT, the “AUC of viability dose-response curve” value was 1.
With A388_SKIN the “AUC of viability dose-response curve” value was 0.978.
U251MG_CENTRAL_NERVOUS_SYSTEM was tested, and the “AUC of viability dose-response curve” value was 0.873.
BOKU_CERVIX was tested, and the “AUC of viability dose-response curve” value was 0.581.
For PEA1_OVARY, the “AUC of viability dose-response curve” value was 0.845.
For MB1_THYROID, the “AUC of viability dose-response curve” value was 0.776.
SIMA_AUTONOMIC_GANGLIA was tested, and the “AUC of viability dose-response curve” value was 0.3 ± 0.073.
In the case of LXF289_LUNG, the “AUC of viability dose-response curve” value is reported as 0.522.
In the case of SF539_CENTRAL_NERVOUS_SYSTEM, the “AUC of viability dose-response curve” value is reported as 1.
For COV644_OVARY, the “AUC of viability dose-response curve” value was 0.92.
A2058_SKIN was tested, and the “AUC of viability dose-response curve” value was 1.
In the case of SW780_URINARY_TRACT, the “AUC of viability dose-response curve” value is reported as 1.
With ICC8_BILIARY_TRACT the “AUC of viability dose-response curve” value was 1.
In the case of HSC2_UPPER_AERODIGESTIVE_TRACT, the “AUC of viability dose-response curve” value is reported as 0.502.
For CAL62_THYROID, the “AUC of viability dose-response curve” value was 0.321.
With HCT15_LARGE_INTESTINE the “AUC of viability dose-response curve” value was 0.354.
In the case of TGBC18TKB_LARGE_INTESTINE, the “AUC of viability dose-response curve” value is reported as 0.938.
For KYSE520_OESOPHAGUS, the “AUC of viability dose-response curve” value was 0.797.
For KATOIII_STOMACH, the “AUC of viability dose-response curve” value was 0.581.
With MDAMB231_BREAST the “AUC of viability dose-response curve” value was 0.701.
In the case of SNU61_LARGE_INTESTINE, the “AUC of viability dose-response curve” value is reported as 0.875.
In the case of CAKI1_KIDNEY, the “AUC of viability dose-response curve” value is reported as 0.644.
In the case of ACHN_KIDNEY, the “AUC of viability dose-response curve” value is reported as 0.807.
In the case of NCIH596_LUNG, the “AUC of viability dose-response curve” value is reported as 1.
HL60_HAEMATOPOIETIC_AND_LYMPHOID_TISSUE was tested, and the “AUC of viability dose-response curve” value was 0.516.
SW579_THYROID was tested, and the “AUC of viability dose-response curve” value was 0.197.
With H4_CENTRAL_NERVOUS_SYSTEM the “AUC of viability dose-response curve” value was 0.625.
HH_HAEMATOPOIETIC_AND_LYMPHOID_TISSUE was tested, and the “AUC of viability dose-response curve” value was 1.
In the case of SQ1_LUNG, the “AUC of viability dose-response curve” value is reported as 1.
A704_KIDNEY was tested, and the “AUC of viability dose-response curve” value was 0.942.
With CCSW1_BILIARY_TRACT the “AUC of viability dose-response curve” value was 0.832.
With COLO783_SKIN the “AUC of viability dose-response curve” value was 0.837.
With SF126_CENTRAL_NERVOUS_SYSTEM the “AUC of viability dose-response curve” value was 0.521.
NCIH1581_LUNG was tested, and the “AUC of viability dose-response curve” value was 0.347.
In the case of “JEKO1_HAEMATOPOIETIC_AND_LYMPHOID_TISSUE”, the “AUC of viability dose-response curve” value is reported as 1.
With GSS_STOMACH the “AUC of viability dose-response curve” value was 0.349.
In the case of NCIH1437_LUNG, the “AUC of viability dose-response curve” value is reported as 0.895.
For HCC15_LUNG, the “AUC of viability dose-response curve” value was 1.
YD38_UPPER_AERODIGESTIVE_TRACT was tested, and the “AUC of viability dose-response curve” value was 0.559.
In the case of SH4_SKIN, the “AUC of viability dose-response curve” value is reported as 0.409.
In the case of ASPC1_PANCREAS, the “AUC of viability dose-response curve” value is reported as 0.845.
For OSRC2_KIDNEY, the “AUC of viability dose-response curve” value was 1.
RDES_BONE was tested, and the “AUC of viability dose-response curve” value was 0.484.
In the case of RERFLCKJ_LUNG, the “AUC of viability dose-response curve” value is reported as 1.
CW2_LARGE_INTESTINE was tested, and the “AUC of viability dose-response curve” value was 1.
For HPAC_PANCREAS, the “AUC of viability dose-response curve” value was 1.
With TEN_ENDOMETRIUM the “AUC of viability dose-response curve” value was 0.726.
